Laboratory results from US20220273530A1, “BIOADHESIVE PARTICLES COMPRISING ACTIVE AGENTS, AND USES THEREOF” (SKINOSIVE, priority 2019, published 2022).

Tests used:
[1] = cited from earlier work
[2] = λmax UV absorbance of free and encapsulated UV filter; type: physicochemical; conditions: free UV filter in ethanol
Procedure: λmax UV absorbance of free Uvinul A plus in ethanol was measured at 357 nm and λmax UV absorbance of Uvinul A plus encapsulated PLA-PEG-Mal particles in water was measured at 360 nm.

| SMILES | UV filter logP [1] | λmax UV absorbance of free UV filter [2] [nm] |
| --- | --- | --- |
| CCCCC(CC)COc1ccc(-c2nc(-c3ccc(OC)cc3)nc(-c3ccc(OCC(CC)CCCC)cc3O)n2)c(O)c1 (centres unmarked) [Bemotrizinol, bis-ethylhexyloxyphenol methoxyphenyl triazine] | 10.4 |  |
| CC1CCC(C(C)C)C(OC(=O)c2ccccc2N)C1 (centres unmarked) [Meradimate] | 5.1 |  |
| CCCCC(CC)COC(=O)c1ccccc1O (centres unmarked) [Octisalate] | 5.7 |  |
| CCCCC(CC)COC(=O)C(C#N)=C(c1ccccc1)c1ccccc1 (centres unmarked) [Octocrylene] | 7.1 | 304 |
| COc1cc(O)c(C(=O)c2ccccc2)cc1S(=O)(=O)O [Sulisobenzone] | 2.2 |  |
| CCCCCCOC(=O)c1ccccc1C(=O)c1ccc(N(CC)CC)cc1O [Uvinul A Plus, diethylamino hydroxybenzoyl hexyl benzoate] | 6.5 | 357 |
